# Experimental data as given in US20110039721A1, “METHOD FOR PREDICTION ABOUT CARCINOGENICITY OF SUBSTANCE IN RODENT” (Chemicals Evaluation and Research Institute, priority 2007, published 2011).
# How the values were obtained:
# [1] = test system: rodent; conditions: in vivo; cited from earlier work
# [2] = test system: liver; conditions: in vivo; cited from earlier work
# [3] = test system: mRNA expressed from the genes (A) to (D) in rat liver; assay: Behavior of genes (mRNA expression level, oligo-DNA microarray) in rat liver after 28-day oral administration; assay type: in vivo; conditions: rat liver, oral once daily 28 days
# Method in brief: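 Male F344 SPF rats, 5 weeks old, four per group, dosed by oral gavage once daily for 28 days with test chemical or matched-volume solvent. Liver total RNA profiled on oligo-DNA microarray. Change ≥1.5-fold or ≤1/1.5 versus vehicle counted as significant if its direction matched that seen with other carcinogens.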
# [4] = (C), Unigene Rn.120914, defined direction +
smiles,measurement,setting,value
"CC(=O)Nc1ccc2c(c1)Cc1ccccc1-2 [TS043, 2-Acetylaminofluorene]",Carcinogenicity,[1],C+
same,Liver carcinogenicity,[2],Cr+
same,"Behavior of gene caused by administration of chemical substance, Gene No. 4846","[3]; (A), Unigene Rn.144554, defined direction +",+
same,"Behavior of gene caused by administration of chemical substance, Gene No. 4218","[3]; (A), Unigene Rn.167075, defined direction +, significant = 1.5 times or more or 1/1.5 or less of control",+
same,"Behavior of gene caused by administration of chemical substance, Gene No. 2026","[3]; (A), Unigene Rn.167075, defined direction −",+
same,"Behavior of gene caused by administration of chemical substance, Gene No. 6182","[3]; (A), Unigene Rn.5834, defined direction +",+
same,"Behavior of gene caused by administration of chemical substance, Gene No. 5600","[3]; (A), Unigene Rn.9836, defined direction +",+
same,"Behavior of gene caused by administration of chemical substance, Gene No. 1494","[3]; (B), Unigene Rn.1430, defined direction −",−
same,"Behavior of gene caused by administration of chemical substance, Gene No. 2045","[3]; (B), Unigene Rn.19329, defined direction +",−
same,"Behavior of gene caused by administration of chemical substance, Gene No. 2203","[3]; (B), Unigene Rn.21240, defined direction +",−
same,"Behavior of gene caused by administration of chemical substance, Gene No. 533","[3]; (C), Unigene Rn.106184, defined direction +",−
same,"Behavior of gene caused by administration of chemical substance, Gene No. 725","[3]; (C), Unigene Rn.108075, defined direction −",+
same,"Behavior of gene caused by administration of chemical substance, Gene No. 1163","[3]; (C), Unigene Rn.11766, defined direction +",+
same,"Behavior of gene caused by administration of chemical substance, Gene No. 4973","[3]; (C), Unigene Rn.118529, defined direction −",+
same,"Behavior of gene caused by administration of chemical substance, Gene No. 4095","[3]; (C), Unigene Rn.119024, defined direction −",+
same,"Behavior of gene caused by administration of chemical substance, Gene No. 1334",[3]; [4],−
same,"Behavior of gene caused by administration of chemical substance, Gene No. 6620",[3]; [4],−
same,"Behavior of gene caused by administration of chemical substance, Gene No. 6303","[3]; (C), Unigene Rn.123063, defined direction −",+
same,"Behavior of gene caused by administration of chemical substance, Gene No. 5878","[3]; (C), Unigene Rn.143213, defined direction −",−
same,"Behavior of gene caused by administration of chemical substance, Gene No. 1131","[3]; (C), Unigene Rn.144946, defined direction −",−
same,"Behavior of gene caused by administration of chemical substance, Gene No. 1562","[3]; (C), Unigene Rn.14744, defined direction −",+
same,"Behavior of gene caused by administration of chemical substance, Gene No. 1741","[3]; (C), Unigene Rn.1647, defined direction −",−
same,"Behavior of gene caused by administration of chemical substance, Gene No. 893","[3]; (C), Unigene Rn.164817, defined direction +",+
same,"Behavior of gene caused by administration of chemical substance, Gene No. 6026","[3]; (C), Unigene Rn.167685, defined direction −",−
same,"Behavior of gene caused by administration of chemical substance, Gene No. 154","[3]; (C), Unigene Rn.185941, defined direction −",−
same,"Behavior of gene caused by administration of chemical substance, Gene No. 1993","[3]; (C), Unigene Rn.18728, defined direction −",+
same,"Behavior of gene caused by administration of chemical substance, Gene No. 813","[3]; (C), Unigene Rn.201760, defined direction +",−
same,"Behavior of gene caused by administration of chemical substance, Gene No. 2494","[3]; (C), Unigene Rn.23969, defined direction +",−
same,"Behavior of gene caused by administration of chemical substance, Gene No. 2546","[3]; (C), Unigene Rn.24561, defined direction −",−
same,"Behavior of gene caused by administration of chemical substance, Gene No. 3776","[3]; (C), Unigene Rn.43232, defined direction −",−
same,"Behavior of gene caused by administration of chemical substance, Gene No. 3929","[3]; (C), Unigene Rn.4620, defined direction +",−
same,"Behavior of gene caused by administration of chemical substance, Gene No. 1119","[3]; (C), Unigene Rn.9757, defined direction +",−
same,"Behavior of gene caused by administration of chemical substance, Gene No. 6742","[3]; (C), Unigene Rn.9779, defined direction +",−
same,"Behavior of gene caused by administration of chemical substance, Gene No. 5634","[3]; (C), Unigene Rn.9862, defined direction −",−
same,"Behavior of gene caused by administration of chemical substance, Gene No. 5726","[3]; (D), Unigene Rn.9939, defined direction −",−
